Data published in publication PMC5665883, “Antithrombotic properties of JJ1, a potent and novel thrombin inhibitor” (Scientific Reports, 2017).

Assays:
[1] = target: T1, Protein Ca (Homo sapiens, UniProt P04070); experiment: Chromogenic substrate assay, Ki (Dixon); type: biochemical
T1 construct: thrombin versus trypsin, factor Xa, elastase, plasmin, protein Ca, streptokinase, tPA, and urokinase

[2] = target: tPA (Homo sapiens, UniProt P00750); experiment: Chromogenic substrate assay, Ki (Dixon); type: biochemical
Chain of tPA (P00750 36-562): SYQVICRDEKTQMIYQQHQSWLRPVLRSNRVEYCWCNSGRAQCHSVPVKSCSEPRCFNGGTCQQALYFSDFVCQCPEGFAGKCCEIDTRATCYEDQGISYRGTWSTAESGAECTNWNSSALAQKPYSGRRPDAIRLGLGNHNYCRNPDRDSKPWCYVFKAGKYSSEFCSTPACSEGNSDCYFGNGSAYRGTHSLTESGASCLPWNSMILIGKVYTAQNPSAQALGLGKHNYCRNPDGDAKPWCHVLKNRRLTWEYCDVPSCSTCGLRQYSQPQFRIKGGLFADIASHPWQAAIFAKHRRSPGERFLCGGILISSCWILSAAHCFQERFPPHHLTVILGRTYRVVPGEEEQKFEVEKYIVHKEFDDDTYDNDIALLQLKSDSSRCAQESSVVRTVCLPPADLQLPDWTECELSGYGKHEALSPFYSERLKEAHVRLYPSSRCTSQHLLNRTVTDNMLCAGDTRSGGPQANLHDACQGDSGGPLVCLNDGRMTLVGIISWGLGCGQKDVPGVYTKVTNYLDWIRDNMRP

[3] = Acute pulmonary thrombosis induced by collagen and epinephrine; type: in vivo, C57BL/6 mice; details: mice, i.v. 1 h before collagen (500 μg/kg) plus epinephrine (50 μg/kg)
Method: Male C57BL/6 mice were fasted overnight and divided into groups of 10 animals. JJ1 suspended in DMSO was administered to mice intravenously. After 1 h, a mixture of collagen (500 μg/kg) plus epinephrine (50 μg/kg) was injected into the tail vein of mice to induce acute thrombosis 1 h later. Each mouse was carefully examined for 15 min to determine whether the mouse was paralyzed, dead, or had recovered from the acute thrombotic challenge. Five separate experiments were performed and the results were subjected to statistical analysis.

[4] = target: T2, Factor XIa (Homo sapiens, UniProt P03951); experiment: Chromogenic substrate assay, Ki (Dixon); type: biochemical
T2 construct: Factor XIa
T2 sequence (P03951 388-625 limits assumed): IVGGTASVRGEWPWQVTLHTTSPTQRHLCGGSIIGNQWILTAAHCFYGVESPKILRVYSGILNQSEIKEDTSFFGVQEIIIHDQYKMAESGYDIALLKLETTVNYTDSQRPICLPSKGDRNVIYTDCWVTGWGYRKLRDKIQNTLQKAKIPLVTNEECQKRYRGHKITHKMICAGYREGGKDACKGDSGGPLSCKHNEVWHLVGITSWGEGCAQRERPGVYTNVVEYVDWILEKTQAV
T2 sequence (P03951 19-387 limits assumed): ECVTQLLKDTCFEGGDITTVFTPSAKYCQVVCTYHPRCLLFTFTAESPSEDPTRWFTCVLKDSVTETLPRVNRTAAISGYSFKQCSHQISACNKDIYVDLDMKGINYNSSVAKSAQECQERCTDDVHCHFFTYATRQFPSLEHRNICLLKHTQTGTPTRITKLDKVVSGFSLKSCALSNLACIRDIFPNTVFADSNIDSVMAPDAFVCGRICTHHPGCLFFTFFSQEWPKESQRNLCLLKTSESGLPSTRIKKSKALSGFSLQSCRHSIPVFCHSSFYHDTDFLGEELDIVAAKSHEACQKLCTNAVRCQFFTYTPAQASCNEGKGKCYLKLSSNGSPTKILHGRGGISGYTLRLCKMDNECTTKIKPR
Method: (§1) Chromogenic substrate assays were performed using a Labsystems IEMS (Cergy Pontoise, France) microtiter plate reader. K i values were calculated according to the method of Dixon[65]. In each assay, the compound was tested at a minimum of seven concentrations, in duplicate, to obtain an inhibition curve. The following general procedures were adopted for each assay. In a 96-well microtiter plate, 25 μL of inhibitor solution or buffer was added to 50 μL of substrate. The enzyme solution (25 μL) was added just before the plate was placed in the microtiter plate reader for 1 h at 37 °C. The hydrolysis of the substrate yields p-nitroaniline, which was continuously monitored spectrophotometrically at 405 nm. The maximal initial reaction rates were calculated and expressed as millioptical density per minute.

[5] = target: T3, Factor IXa (Homo sapiens, UniProt P00740); experiment: Chromogenic substrate assay, Ki (Dixon); type: biochemical
T3 construct: Factor IXa
T3 sequence (P00740 227-461 limits assumed): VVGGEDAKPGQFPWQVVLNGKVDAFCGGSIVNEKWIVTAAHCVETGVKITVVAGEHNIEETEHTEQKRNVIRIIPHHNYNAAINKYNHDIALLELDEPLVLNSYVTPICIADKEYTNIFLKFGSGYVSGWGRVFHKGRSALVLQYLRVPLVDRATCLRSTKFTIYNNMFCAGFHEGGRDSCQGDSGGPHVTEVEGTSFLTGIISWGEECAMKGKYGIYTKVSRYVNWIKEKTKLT
T3 sequence (P00740 47-191 limits assumed): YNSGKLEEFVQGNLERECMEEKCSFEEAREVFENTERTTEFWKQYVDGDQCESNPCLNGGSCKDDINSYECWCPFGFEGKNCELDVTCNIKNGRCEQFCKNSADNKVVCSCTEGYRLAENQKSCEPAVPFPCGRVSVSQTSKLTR
Method: as §1

[6] = system: HUVECs; experiment: Production of thrombin on the surfaces of HUVECs; type: cell-based, human; details: HUVECs with FVa, FXa, prothrombin
Method: Thrombin production by HUVECs was quantified as previously described[63],[68]. Briefly, HUVECs were pre-incubated in 300 μL of a solution containing JJ1 in 50 mM Tris-HCl buffer, 100 pM FVa, and 1 nM FXa for 10 min, followed by the addition of prothrombin to a final concentration of 1 μM. After 10 min, duplicate samples (10 μL each) were transferred into a 96-well plate containing 40 μL 0.5 M EDTA in TBS per well to terminate the prothrombin activation. Activated prothrombin was determined by the measurement of the rate of hydrolysis of S-2238 (a thrombin substrate) at 405 nm. Standard curves were prepared with known amounts of purified thrombin.

[7] = target: Urokinase (Homo sapiens, UniProt P00749); experiment: Chromogenic substrate assay, Ki (Dixon); type: biochemical
[8] = Ex vivo aPTT clotting time; type: in vivo, C57BL/6 mice; details: mice, i.v., 1 h after administration
Method: (§2) The aPTT and PT were determined using a Thrombotimer (Behnk Elektronik, Norderstedt, Germany) in accordance with the manufacturer’s instructions and as previously described. Briefly, citrated normal human plasma (90 μL) was mixed with 10 μL JJ1 and incubated for 1 min at 37 °C. Subsequently, the aPTT assay reagent (100 μL) was added, the plasma sample was incubated for an additional 1 min at 37 °C, 20 mM CaCl2 (100 μL) was added, and the clotting times were recorded. For the PT assays, citrated normal human plasma (90 μL) was mixed with 10 μL JJ1 stock solution and was incubated for 1 min at 37 °C. The PT assay reagent (200 μL), which had been pre-incubated for 10 min at 37 °C, was subsequently added and the clotting time was recorded. The PT results were expressed in seconds and as International Normalized Ratios (INR): INR = (PT sample/PT control)^ISI, where ISI = international sensitivity index. The aPTT results were also expressed in seconds. All experimental protocols (KNUH 2012-01-010) were approved by the Institutional Review Board of Kyungpook National University Hospitals (Daegu, Republic of Korea).
Male C57BL/6 mice were fasted overnight. Each compound was dissolved in 0.5% DMSO and administered by i.v. injection. One hour after administration, arterial blood samples (0.1 mL) were collected in 3.8% sodium citrate (1:10, v/v) for the ex vivo aPTT and PT determination. The clotting times were determined as described above.

[9] = system: human plasma; experiment: In vitro aPTT clotting time; type: biochemical; details: for aPTT: in vitro
Method: as §2

[10] = target: T4, Plasmin (Homo sapiens, UniProt P00747); experiment: Chromogenic substrate assay, Ki (Dixon); type: biochemical
T4 construct: thrombin versus trypsin, factor Xa, elastase, plasmin, protein Ca, streptokinase, tPA, and urokinase
T4 sequence (P00747 581-810 limits assumed): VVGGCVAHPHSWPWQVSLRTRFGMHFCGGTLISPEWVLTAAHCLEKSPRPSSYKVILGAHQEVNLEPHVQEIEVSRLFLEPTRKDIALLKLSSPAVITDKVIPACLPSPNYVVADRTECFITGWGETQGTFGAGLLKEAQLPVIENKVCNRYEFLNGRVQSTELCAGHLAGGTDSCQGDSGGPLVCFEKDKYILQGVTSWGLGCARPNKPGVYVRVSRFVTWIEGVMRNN
T4 sequence (P00747 97-580 limits assumed): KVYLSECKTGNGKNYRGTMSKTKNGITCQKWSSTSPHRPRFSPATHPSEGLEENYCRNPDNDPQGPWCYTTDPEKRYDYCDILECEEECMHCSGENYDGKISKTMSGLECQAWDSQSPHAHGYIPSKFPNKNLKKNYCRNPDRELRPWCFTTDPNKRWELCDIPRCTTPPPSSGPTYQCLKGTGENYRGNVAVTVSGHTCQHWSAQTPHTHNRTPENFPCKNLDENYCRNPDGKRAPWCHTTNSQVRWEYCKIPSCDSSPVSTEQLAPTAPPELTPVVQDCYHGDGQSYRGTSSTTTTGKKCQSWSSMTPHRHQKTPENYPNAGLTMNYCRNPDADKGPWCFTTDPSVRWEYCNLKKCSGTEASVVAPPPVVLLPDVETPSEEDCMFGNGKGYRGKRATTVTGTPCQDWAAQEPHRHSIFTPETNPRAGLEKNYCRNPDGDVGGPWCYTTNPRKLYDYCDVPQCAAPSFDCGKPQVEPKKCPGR

T1 sequence (P04070 212-450 limits assumed): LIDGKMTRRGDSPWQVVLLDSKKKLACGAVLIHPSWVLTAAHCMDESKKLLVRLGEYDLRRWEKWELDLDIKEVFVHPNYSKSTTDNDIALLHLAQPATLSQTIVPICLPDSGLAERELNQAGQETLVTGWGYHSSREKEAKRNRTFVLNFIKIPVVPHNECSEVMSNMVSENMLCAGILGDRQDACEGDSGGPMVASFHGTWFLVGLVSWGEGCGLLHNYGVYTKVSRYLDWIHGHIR
T1 sequence (P04070 43-197 limits assumed): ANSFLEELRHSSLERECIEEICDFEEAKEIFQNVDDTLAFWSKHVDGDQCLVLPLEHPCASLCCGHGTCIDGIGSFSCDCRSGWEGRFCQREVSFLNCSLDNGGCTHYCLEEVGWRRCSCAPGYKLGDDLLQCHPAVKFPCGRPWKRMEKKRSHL

c1ccc2c(NC3CCCC3)nc(Nc3ccncc3)nc2c1 [JJ1]
Selectivity ratio ([1]; K i Protein Ca/K i α-thrombin): >10,000 | Ki ([1]; Protein Ca): > 250 µM | Selectivity ratio ([2]; K i tPA/K i α-thrombin): >10,000 | Ki ([2]; tPA): > 250 µM | Mortality [3]: decreased significantly | Ki ([4]; Factor XIa): > 250 µM | Selectivity ratio ([4]; K i Factor XIa/K i α-thrombin): >10,000 | Ki ([5]; Factor IXa): > 250 µM | Selectivity ratio ([5]; K i Factor IXa/K i α-thrombin): >10,000 | Production of thrombin [6]: inhibited the production of thrombin in a dose-dependent manner | Selectivity ratio ([7]; K i Urokinase/K i α-thrombin): >10,000 | Ki ([7]; Urokinase): > 250 µM | aPTT ([8]; 0.31 μg/mouse): 31.9 ± 0.6 s | aPTT ([8]; 0.61 μg/mouse): 40.1 ± 1.1 s | aPTT ([8]; 1.23 μg/mouse): 49.4 ± 1.5 s | aPTT ([8]; 3.06 μg/mouse): 55.8 ± 1.2 s | Concentration that doubled the clotting time, aPTT assay [9]: 1.66 µM | aPTT ([9]; 0.05 μM): 23.5 ± 0.4 s | aPTT ([9]; 0.1 μM): 23.3 ± 0.2 s | aPTT ([9]; 0.2 μM): 24.2 ± 0.4 s | aPTT ([9]; 0.5 μM): 32.4 ± 0.6 s | aPTT ([9]; 1.0 μM): 41.3 ± 0.4 s | aPTT ([9]; 2.0 μM): 50.4 ± 0.6 s | aPTT ([9]; 5.0 μM): 51.6 ± 0.4 s | Selectivity ratio ([10]; K i Plasmin/K i α-thrombin): >10,000 | Ki ([10]; Plasmin): > 250 µM
